Converted amounts (≈) assume the structure as drawn.
Key:
Bord. bronchiseptica B08 = experiment: Veterinary bacteria, MIC by two fold serial dilution in agar; conditions: Bordetella bronchiseptica, B08, 18 h
Description: (§1) The activity of the compounds of the Examples against various organisms important in veterinary infections was determined using two fold serial dilutions in Diagnostic Sensitivity Test Agar inoculated with 10^4 organisms.

M. gallisepticum S6 = experiment: Anti-mycoplasmal activity, MIC in Friis broth agarose; assay type: cell-based; conditions: Mycoplasmoides gallisepticum, 144 h, Friis broth solidified with 0.9% agarose, 6 days incubation at 37°C, read-out: MIC
M. hyorhinis ATCC 25021 = experiment: as above; assay type: cell-based; conditions: Mesomycoplasma hyorhinis, ATCC25021, 144 h, Friis broth solidified with 0.9% agarose, 6 days incubation at 37°C, read-out: MIC
Strep. pneumoniae CN33 = experiment: Human bacteria, MIC by serial dilution in nutrient agar; assay type: cell-based; conditions: Streptococcus pneumoniae, nutrient agar with 5% chocolated horse blood, 18 hours at 37°C, read-out: MIC
Staph. aureus Russell = experiment: as above; assay type: cell-based; conditions: Staphylococcus aureus, nutrient agar with 5% chocolated horse blood, 18 hours at 37°C, read-out: MIC
Bacillus subtilis 6633 = experiment: as above; assay type: cell-based; conditions: nutrient agar with 5% chocolated horse blood, 18 hours at 37°C, read-out: MIC
Ps. aeruginosa 10662 = experiment: as above; assay type: cell-based; conditions: Pseudomonas aeruginosa, nutrient agar with 5% chocolated horse blood, 18 hours at 37°C, read-out: MIC
Staph. aureus Oxford [1] = experiment: Veterinary bacteria, MIC by two fold serial dilution in agar; conditions: Staphylococcus aureus, 18 h
Description: as §1

Past. multocida PA2 = experiment: as above; conditions: Pasteurella multocida, PA2, 18 h
Description: as §1

Strep. spp. 64/848-C = experiment: Human bacteria, MIC by serial dilution in nutrient agar; assay type: cell-based; conditions: nutrient agar with 5% chocolated horse blood, 18 hours at 37°C, read-out: MIC
[2] = system: Corynebacterium pyogenes CY1; experiment: Veterinary bacteria, MIC by two fold serial dilution in agar; conditions: CY1, 18 h
Description: as §1

[3] = system: M. suipneumoniae ATCC 25095; experiment: Anti-mycoplasmal activity, MIC in Friis broth agarose; assay type: cell-based; conditions: Mesomycoplasma hyopneumoniae, ATCC25095, 144 h, Friis broth solidified with 0.9% agarose, 6 days incubation at 37°C, read-out: MIC
[4] = system: Pasteurella multocida 1633; experiment: Human bacteria, MIC by serial dilution in nutrient agar; assay type: cell-based; conditions: nutrient agar with 5% chocolated horse blood, 18 hours at 37°C, read-out: MIC
K. aerogenes A = experiment: as above; assay type: cell-based; conditions: Klebsiella aerogenes, nutrient agar with 5% chocolated horse blood, 18 hours at 37°C, read-out: MIC
S. typhimurium S18 = experiment: Veterinary bacteria, MIC by two fold serial dilution in agar; conditions: Salmonella enterica, TYPHIMURIUM, 18 h
Description: as §1

[5] = system: Staph. aureus B4 (pen. resistant); experiment: as above; conditions: Staphylococcus aureus, 18 h
Description: as §1

[6] = system: Haemophilus influenzae Q1; experiment: Human bacteria, MIC by serial dilution in nutrient agar; assay type: cell-based; conditions: nutrient agar with 5% chocolated horse blood, 18 hours at 37°C, read-out: MIC
Strep. dysgalactiae SPD1 = experiment: Veterinary bacteria, MIC by two fold serial dilution in agar; conditions: Streptococcus dysgalactiae, SPD1, 18 h
Description: as §1

M. suipneumoniae Str. 11 = experiment: Anti-mycoplasmal activity, MIC in Friis broth agarose; assay type: cell-based; conditions: Mesomycoplasma hyopneumoniae, 144 h, Friis broth solidified with 0.9% agarose, 6 days incubation at 37°C, read-out: MIC
E. coli NCTC 10418 [7] = experiment: Veterinary bacteria, MIC by two fold serial dilution in agar; conditions: Escherichia coli, NCTC10418, 18 h
Description: as §1

Staph. aureus Oxford [8] = experiment: Human bacteria, MIC by serial dilution in nutrient agar; assay type: cell-based; conditions: Staphylococcus aureus; Staph. aureus Oxford (human panel); nutrient agar with 5% chocolated horse blood; 18 hours at 37°C; read-out: MIC
Past. haemolytica PA5 = experiment: Veterinary bacteria, MIC by two fold serial dilution in agar; conditions: Mannheimia haemolytica, PA5, 18 h
Description: as §1

E. coli E1 = experiment: as above; conditions: Escherichia coli, E1, 18 h
Description: as §1

E. coli NCTC 10418 [9] = experiment: Human bacteria, MIC by serial dilution in nutrient agar; assay type: cell-based; conditions: Escherichia coli, NCTC10418; E. coli NCTC 10418 (human panel); nutrient agar with 5% chocolated horse blood; 18 hours at 37°C; read-out: MIC
Strep. uberis SPU1 = experiment: Veterinary bacteria, MIC by two fold serial dilution in agar; conditions: Streptococcus uberis, SPU1, 18 h
Description: as §1

[10] = system: Staph. aureus 152 (pen. sens.); experiment: as above; conditions: Staphylococcus aureus, 18 h
Description: as §1

E. coli ESS = experiment: Human bacteria, MIC by serial dilution in nutrient agar; assay type: cell-based; conditions: Escherichia coli, nutrient agar with 5% chocolated horse blood, 18 hours at 37°C, read-out: MIC
M. suipneumoniae JF 435 = experiment: Anti-mycoplasmal activity, MIC in Friis broth agarose; assay type: cell-based; conditions: Mesomycoplasma hyopneumoniae, JF435, 144 h, Friis broth solidified with 0.9% agarose, 6 days incubation at 37°C, read-out: MIC
Strep. faecalis I = experiment: Human bacteria, MIC by serial dilution in nutrient agar; assay type: cell-based; conditions: Enterococcus faecalis, nutrient agar with 5% chocolated horse blood, 18 hours at 37°C, read-out: MIC
[11] = system: Erysipelothrix rhusiopathiae NCTC 8163; experiment: Veterinary bacteria, MIC by two fold serial dilution in agar; conditions: Erysipelothrix rhusiopathiae, NCTC8163, 18 h
Description: as §1

[12] = system: M. suipneumoniae NCTC 10110; experiment: Anti-mycoplasmal activity, MIC in Friis broth agarose; assay type: cell-based; conditions: Mesomycoplasma hyopneumoniae, NCTC10110, 144 h, Friis broth solidified with 0.9% agarose, 6 days incubation at 37°C, read-out: MIC
[13] = system: Neisseria catarrhalis 1502; experiment: Human bacteria, MIC by serial dilution in nutrient agar; assay type: cell-based; conditions: nutrient agar with 5% chocolated horse blood, 18 hours at 37°C, read-out: MIC
M. dispar NCTC 10125 = experiment: Anti-mycoplasmal activity, MIC in Friis broth agarose; assay type: cell-based; conditions: 144 h, Friis broth solidified with 0.9% agarose, 6 days incubation at 37°C, read-out: MIC
[14] = system: Strep. suis (group D) SPS11; experiment: Veterinary bacteria, MIC by two fold serial dilution in agar; conditions: Streptococcus suis, 18 h
Description: as §1

[15] = system: Haemophilus influenzae Wy21; experiment: Human bacteria, MIC by serial dilution in nutrient agar; assay type: cell-based; conditions: nutrient agar with 5% chocolated horse blood, 18 hours at 37°C, read-out: MIC
[16] = system: Corynebacterium xerosis 9755; experiment: as above; assay type: cell-based; conditions: nutrient agar with 5% chocolated horse blood, 18 hours at 37°C, read-out: MIC
M. suipneumoniae TAM 6N = experiment: Anti-mycoplasmal activity, MIC in Friis broth agarose; assay type: cell-based; conditions: Mesomycoplasma hyopneumoniae, TAM6N, 144 h, Friis broth solidified with 0.9% agarose, 6 days incubation at 37°C, read-out: MIC
M. suipneumoniae HK(2) = experiment: as above; assay type: cell-based; conditions: Mesomycoplasma hyopneumoniae, 144 h, Friis broth solidified with 0.9% agarose, 6 days incubation at 37°C, read-out: MIC
M. suipneumoniae MS16 = experiment: as above; assay type: cell-based; conditions: Mesomycoplasma hyopneumoniae, 144 h, Friis broth solidified with 0.9% agarose, 6 days incubation at 37°C, read-out: MIC

`CSc1ccc(COC(=O)C=C(C)CC2OCC(CC3OC3C(C)C(C)O)C(O)C2O)cc1` (stereo not drawn) [Example 1, p-Methylthiobenzyl monate A] gave an MIC (Bord. bronchiseptica B08) of 20 µg/mL (≈ 41.6 µM), an MIC (M. gallisepticum S6) of 2.5 µg/mL (≈ 5.2 µM) and an MIC (M. hyorhinis ATCC 25021) of 0.25 µg/mL (≈ 0.52 µM). It also gave an MIC (Strep. pneumoniae CN33) of 0.5 µg/mL (≈ 1.04 µM), an MIC (Staph. aureus Russell) of 0.5 µg/mL (≈ 1.04 µM) and an MIC (Bacillus subtilis 6633) of 0.25 µg/mL (≈ 0.52 µM). The MIC (Ps. aeruginosa 10662) was over 100 µg/mL, the MIC (Staph. aureus Oxford [1]) was 0.156 µg/mL (≈ 0.325 µM) and the MIC (Past. multocida PA2) was 0.156 µg/mL (≈ 0.325 µM). The MIC (Strep. spp. 64/848-C) was 0.5 µg/mL (≈ 1.04 µM), the MIC [2] was over 80 µg/mL and the MIC [3] was 0.5 µg/mL (≈ 1.04 µM). For the same molecule, the MIC [4] was 1 µg/mL (≈ 2.08 µM), the MIC (K. aerogenes A) was over 100 µg/mL and the MIC (S. typhimurium S18) was over 80 µg/mL. It also gave an MIC [5] of 0.156 µg/mL (≈ 0.325 µM), an MIC [6] of 0.25 µg/mL (≈ 0.52 µM) and an MIC (Strep. dysgalactiae SPD1) of 0.156 µg/mL (≈ 0.325 µM). It also gave an MIC (M. suipneumoniae Str. 11) of 0.25 µg/mL (≈ 0.52 µM), an MIC (E. coli NCTC 10418 [7]) of over 80 µg/mL and an MIC (Staph. aureus Oxford [8]) of 0.5 µg/mL (≈ 1.04 µM). For the same molecule, the MIC (Past. haemolytica PA5) was 0.312 µg/mL (≈ 0.649 µM), the MIC (E. coli E1) was over 80 µg/mL and the MIC (E. coli NCTC 10418 [9]) was 100 µg/mL (≈ 208 µM). For the same molecule, the MIC (Strep. uberis SPU1) was 0.039 µg/mL (≈ 0.0811 µM), the MIC [10] was 0.156 µg/mL (≈ 0.325 µM) and the MIC (E. coli ESS) was 1 µg/mL (≈ 2.08 µM). For the same molecule, the MIC (M. suipneumoniae JF 435) was 0.5 µg/mL (≈ 1.04 µM), the MIC (Strep. faecalis I) was 100 µg/mL (≈ 208 µM) and the MIC [11] was 10 µg/mL (≈ 20.8 µM). For the same molecule, the MIC [12] was 0.5 µg/mL (≈ 1.04 µM), the MIC [13] was 0.25 µg/mL (≈ 0.52 µM) and the MIC (M. dispar NCTC 10125) was 0.1 µg/mL (≈ 0.208 µM). The MIC [14] was 2.5 µg/mL (≈ 5.2 µM), the MIC [15] was 0.25 µg/mL (≈ 0.52 µM) and the MIC [16] was over 100 µg/mL. For the same molecule, the MIC (M. suipneumoniae TAM 6N) was 0.5 µg/mL (≈ 1.04 µM), the MIC (M. suipneumoniae HK(2)) was 0.5 µg/mL (≈ 1.04 µM) and the MIC (M. suipneumoniae MS16) was 0.25 µg/mL (≈ 0.52 µM).

`CC(=CC(=O)OCc1ccc([S+](C)[O-])cc1)CC1OCC(CC2OC2C(C)C(C)O)C(O)C1O` (stereo not drawn) [Example 2, p- Methylsulphinylbenzyl monate A] was tested, and the MIC (Bord. bronchiseptica B08) was 40 µg/mL (≈ 80.5 µM), the MIC (M. gallisepticum S6) was 1 µg/mL (≈ 2.01 µM) and the MIC (M. hyorhinis ATCC 25021) was 0.1 µg/mL (≈ 0.201 µM). It also gave an MIC (Strep. pneumoniae CN33) of 1 µg/mL (≈ 2.01 µM), an MIC (Staph. aureus Russell) of 2.5 µg/mL (≈ 5.03 µM) and an MIC (Bacillus subtilis 6633) of 1 µg/mL (≈ 2.01 µM). For the same molecule, the MIC (Ps. aeruginosa 10662) was over 100 µg/mL, the MIC (Staph. aureus Oxford [1]) was 1.25 µg/mL (≈ 2.52 µM) and the MIC (Past. multocida PA2) was 0.625 µg/mL (≈ 1.26 µM). It also gave an MIC (Strep. spp. 64/848-C) of 1 µg/mL (≈ 2.01 µM), an MIC [2] of over 80 µg/mL and an MIC [3] of 0.25 µg/mL (≈ 0.503 µM). It also gave an MIC [4] of 0.5 µg/mL (≈ 1.01 µM), an MIC (K. aerogenes A) of over 100 µg/mL and an MIC (S. typhimurium S18) of over 80 µg/mL. The MIC [5] was 2.5 µg/mL (≈ 5.03 µM), the MIC [6] was 0.05 µg/mL (≈ 0.101 µM) and the MIC (Strep. dysgalactiae SPD1) was 0.312 µg/mL (≈ 0.628 µM). It also gave an MIC (M. suipneumoniae Str. 11) of 0.25 µg/mL (≈ 0.503 µM), an MIC (E. coli NCTC 10418 [7]) of over 80 µg/mL and an MIC (Staph. aureus Oxford [8]) of 2.5 µg/mL (≈ 5.03 µM). The MIC (Past. haemolytica PA5) was 5 µg/mL (≈ 10.1 µM), the MIC (E. coli E1) was over 80 µg/mL and the MIC (E. coli NCTC 10418 [9]) was over 100 µg/mL. For the same molecule, the MIC (Strep. uberis SPU1) was 0.156 µg/mL (≈ 0.314 µM), the MIC [10] was 1.25 µg/mL (≈ 2.52 µM) and the MIC (E. coli ESS) was 0.5 µg/mL (≈ 1.01 µM). The MIC (M. suipneumoniae JF 435) was 0.25 µg/mL (≈ 0.503 µM), the MIC (Strep. faecalis I) was 50 µg/mL (≈ 101 µM) and the MIC [11] was 20 µg/mL (≈ 40.3 µM). It also gave an MIC [12] of 0.25 µg/mL (≈ 0.503 µM), an MIC [13] of 0.5 µg/mL (≈ 1.01 µM) and an MIC (M. dispar NCTC 10125) of 0.1 µg/mL (≈ 0.201 µM). The MIC [14] was 2.5 µg/mL (≈ 5.03 µM), the MIC [15] was 0.1 µg/mL (≈ 0.201 µM) and the MIC [16] was over 100 µg/mL. It also gave an MIC (M. suipneumoniae TAM 6N) of 0.5 µg/mL (≈ 1.01 µM), an MIC (M. suipneumoniae HK(2)) of 0.25 µg/mL (≈ 0.503 µM) and an MIC (M. suipneumoniae MS16) of 0.1 µg/mL (≈ 0.201 µM).
